Key:
P-2 mRNA = P-2 mRNA expression in mEF by TAQMAN PCR after cytokine treatment; assay type: cell-based, murine; conditions: added singly, 14 hours
Method: (§1) Murine embryonic fibroblasts (FIG. 14A), a rectal cancer cell line (FIG. 14B), myoblast cell line (FIG. 14C), and an ovarian cell line (FIG. 14D) were treated for 14 hours with 100 U/ml interferon-α, interferon-β, and interferon-γ treated. LPS was treated at 1 ng/ml; IL-1α at 10 U/ml, IL-1β at 1 ng/ml, and TNFα at 20 ng/mL. A human embryonic kidney cell line (FIG. 14E) and cervical cancer cell line (FIG. 14F) were treated with human IFN-α at 150 U/ml, IFN-β and IFN-γ at 100 U/ml. The BV2 microglial cell line was stimulated with 100 U/ml of murine Interferon-γ for 14 hours to upregulate P-2 mRNA and protein. mEF treated with IFN-γ for 14 hours (mEF), or IFN-γ for 14 hours followed by 1 hour of treatment with […] MG-132 (mEF+MG132) (FIG. 14G). Human primary keratinocytes were analyzed for protein expression with indicated recombinant human IFN treatment (FIG. 14H). mEF were treated with E. coli or M. smegmatis. At indicated time points, cells were harvested and analyzed for P-2 mRNA and compared to uninfected controls by TAQMAN™ PCR. (FIG. 14I) mEF were either not stimulated, or stimulated for 14 hours with IFN-γ at 100 U/ml. After stimulation, mEF were infected with M. smegmatis and analyzed for colony forming units at indicated time points.
Recombinant murine IL-1α, IL-1β, TNFα, IFN-γ, IFN-α, IFN-β recombinant human IFN-γ, IFN-β were purchased from preprotech. Recombant human IFN-α was purchased from R&D systems. Murine […] was supplemented at 10 U/mL where indicated. Murine IL-1β was supplemented at 1 ng/ml. Murine TNFα was supplemented at 20 ng/ml. Murine IFN-α, IFN-β and IFN-γ was supplemented with 100 U/ml. Human IFN-α was supplemented where indicated in at a concentration of 150 U/ml where indicated. Human IFN-β and IFN-γ was supplemented at a concentration of 100 U/ml. LPS was added at a concentration of 1 ng/ml.
RNA was extracted from cells following RNeasy (Qiagen) instructions. One μg of RNA was converted to cDNA using QuantiTect Reverse Transcription kit (Qiagen) following supplier's protocol. qRT-PCR was performed using TAQMAN® Gene Expression Assays (Applied Biosystems) for murine Mpeg1 and GAPDH, with the later serving as a housekeeping control gene. For human tissues, human Mpeg1 and GapDH probes were utilized. All assays were performed on the Applied Biosystems 7300 PCR platform.

M. smegmatis = assay: Gentamycin protection assay: M. smegmatis in IFN-preinduced mEF; assay type: cell-based, Mycobacterium smegmatis; conditions: uninduced mEF delayed by about 16 h
Method: as §1, with “points. […]” for “points.”

P-2 = P-2 expression in macrophages, BMDM/DC and microglia after LPS and IFN-γ; assay type: cell-based, murine; conditions: LPS and IFN-γ given together, microglia
Method: BMDM/DC were differentiated from murine bone marrow for 10 days in the presence GM-CSF and then stimulated with (FIG. 9A) LPS ([…]) and IFNγ (100 U/ml) or (FIG. 9B) poly(I:C) (3 mg/ml) for 48 hr. (FIG. 9C) BV2 microglial cells were stimulated for 24 hr with IFNγ (100 U/ml). (FIG. 9D) RAW cells were stimulated for 24 hr with LPS (Ing/ml) and IFNγ (100 U/ml). Cells were harvested at the indicated time points and analyzed for P-2 message expression by TAQMAN™ RT-PCR, relative to GAPDH.
RNA was extracted from cells according to RNeasy (Qiagen) instructions. 1 μg of RNA was converted to cDNA using QuantiTect Reverse Transcription Kit (Qiagen) RT-PCR was performed using TAQMAN® Gene Expression Assays (Applied Biosystems) for murine Mpeg-1 and GAPDH, as a housekeeping control gene. All assays were performed on Applied Biosystems 7300 PCR platform.

IFNγ
P-2 mRNA induction in mEF (P-2 mRNA): up-regulates P-2 mRNA | time to kill intracellular M. smegmatis (M. smegmatis): 1 to 5 h | P-2 mRNA and protein expression (P-2): upregulate P-2 mRNA and protein expression

Reference: US20170191058A1, “PERFORIN 2 DEFENSE AGAINST INVASIVE AND MULTIDRUG RESISTANT PATHOGENS” (priority 2012, published 2017)
